Source: US6440440B1, “Biocidal benzylbiphenyl derivatives” (priority 1998, dated 2002)

Experiments:
Format in all cases: cell-based
[1] = tested on: Escherichia coli; assay: Primary bacteria screening; parameters: key: score: 3 = complete inhibition of growth, 2 = growth partially controlled; details: test compound concentration 500 μMol in tryptose broth agar, 27° C.
Procedure: (§1) The stock solutions with the test compounds were pipetted into multiwell plates and mixed with warm tryptose broth agar (2.6%) in order to reach a test compound concentration of 500 μMol. The medium was allowed to cool and subsequently inoculated with the bacteria. Wells were placed in an incubator at 27° C. and a relative humidity of 70%. After sufficient growth of the untreated cultures, the test was evaluated.
(§2) 3: complete inhibition of bacterial growth
(§3) 2: bacterial growth partially controlled

[2] = tested on: Pseudomonas aeruginosa; assay: Primary bacteria screening; parameters: key: score: 3 = complete inhibition of growth, 2 = growth partially controlled; details: test compound concentration 500 μMol in tryptose broth agar, 27° C.
Procedure: as §1, §2, §3

[3] = tested on: Debaryomyces hansenii; assay: Screening against yeasts; parameters: key: 3 = complete inhibition of growth, 2 = growth partially controlled; details: test compound concentration 500 μM
Procedure: as §1, §2, §3
(§4) A number of compounds of formula (I) were also tested in a screening against certain The test conditions are the same as described in biological example C.1. The concentration of the test compound was also 500 μmol, and the scoring system used was also the same.
Debaryomyces hansenii (19)

[4] = tested on: Rhodotorula rubra; assay: Screening against yeasts; parameters: key: 3 = complete inhibition of growth, 2 = growth partially controlled; details: test compound concentration 500 μmol
Procedure: as §1, §2, §3, §4

[5] = tested on: Sporobolomyces roseus; assay: Screening against yeasts; parameters: key: 3 = complete inhibition of growth, 2 = growth partially controlled; details: test compound concentration 500 μmol
Procedure: as §1, §2, §3, §4
Sporobolomyces roseus (21)

[6] = tested on: Cellulomonas flavigena; assay: Poison plate assay, synergistic effect in combinations with BIT; details: for Calculated activity: Limpel's formula
Procedure: (§5) Biocidal activity against bacterial/yeast growth was determined with the poison plate assay. To obtain the required concentrations of the test compound, calculated amounts of stock solutions (DMSO) were pipetted into multi-well plates. Tryptose agar (except for Rhodotorula: PDA) was added aseptically and uniform distribution was obtained by shaking. Each plate was inoculated with a bacterial/yeast suspension. After incubation at 27° C. and 70% relative humidity, for a period long enough to allow complete growth of controls, percentage activity as compared to the control was scored.
(§6) Possible synergy was investigated using Limpel's formula (Richter, D. L., Pestic. Sci. 1987, 19: 309-315): [formula]
(§7) where EC is the expected additive response, or calculated activity, X is the observed percentage control when compound A is applied alone and Y is the observed percentage control when compound B is applied alone. Synergy was considered to occur when the observed effect, or measured activity, of a combination of both compounds was greater than the corresponding EC value.
(§8) The table C.4 to C.6 below enumerate the measured and calculated activities of BIT and compounds 20, 42 and 40 when tested as a single test compound or as a combination against Rhodotorula rubra or Cellulomonas flavigena. BIT (1,2-benzisothiazol-3(2H)-one) is a well-known bacteride and was tested at a concentration of 25 and 50 μmol. Compounds 20, 40 and 42 were tested at a concentration of 25, 50 and 75 μmol. When a synergistic effect was observed, the “measured” and “calculated” activity are indicated with a bold typeface.

[7] = tested on: Rhodotorula rubra; assay: as above; details: for Calculated activity: Limpel's formula
Procedure: as §5, §6, §7, §8

[8] = tested on: Providencia rettgeri; assay: Poison plate assay, combinations with BAC; details: for Calculated activity: Limpel's formula
Procedure: as §5, §6, §7
The table C.7 to C.8 below enumerate the measured and calculated activities of BAC and compounds 20, 42 and 40 when tested as a single test compound or as a combination against Providencia rettgeri. BAC (benzalconium chloride) is a well-bacteride and was tested at a concentration of 40 and 80 μmol. Compounds 20, 40 and 42 were tested at a concentration of 10, 20, 40, 80 and 160 μmol. When a synergistic effect was observed, the “measured” and “calculated” activity are indicated with a bold typeface.

[9] = combination BIT 25 μmol + compound 25 μmol
[10] = combination BIT 25 μmol + compound 50 μmol
[11] = combination BIT 25 μmol + compound 75 μmol
[12] = combination BIT 50 μmol + compound 25 μmol
[13] = combination BIT 50 μmol + compound 50 μmol
[14] = combination BIT 50 μmol + compound 75 μmol
[15] = BAC 40 μmol + compound 160 μmol
[16] = BAC 80 μmol + compound 160 μmol
[17] = combination BAC 40 μmol + compound 10 μmol
[18] = combination BAC 40 μmol + compound 20 μmol
[19] = combination BAC 40 μmol + compound 40 μmol
[20] = combination BAC 40 μmol + compound 80 μmol
[21] = combination BAC 40 μmol + compound 160 μmol
[22] = combination BAC 80 μmol + compound 10 μmol
[23] = combination BAC 80 μmol + compound 20 μmol
[24] = combination BAC 80 μmol + compound 40 μmol
[25] = combination BAC 80 μmol + compound 80 μmol
[26] = combination BAC 80 μmol + compound 160 μmol

Cl.Cl.O.c1ccc(-c2ccc(C(c3ccccc3)C3CCN(C4CCNCC4)CC3)cc2)cc1 (racemic) [Co. No. 20, (±)-4-[[(1,1′-biphenyl)-4-yl]phenylmethyl](1,4′-bipiperidine)dihydrochloride monohydrate]
E. coli (growth inhibition score) [1]: 3 | P. aeruginosa (growth inhibition score) [2]: 3 | Test yeast (19) Debaryomyces hansenii (score) [3]: 3 | Test yeast (20) Rhodotorula rubra (score) [4]: 3 | Test yeast (21) Sporobolomyces roseus (score) [5]: 3 | Calculated activity ([6]; BIT 25 μmol + compound 25 μmol): 0% | Calculated activity ([6]; BIT 25 μmol + compound 50 μmol): 0% | Calculated activity ([6]; BIT 25 μmol + compound 75 μmol): 0% | Calculated activity ([6]; BIT 50 μmol + compound 25 μmol): 100% | Calculated activity ([6]; BIT 50 μmol + compound 50 μmol): 100% | Calculated activity ([6]; BIT 50 μmol + compound 75 μmol): 100% | Measured activity [6, 9]: 0% | Measured activity [6, 10]: 100% | Measured activity [6, 11]: 95% | Measured activity [6, 12]: 100% | Measured activity [6, 13]: 100% | Measured activity [6, 14]: 100% | Measured activity ([6]; compound alone 25 μmol): 0% | Measured activity ([6]; compound alone 50 μmol): 0% | Measured activity ([6]; compound alone 75 μmol): 0% | Calculated activity ([7]; BIT 25 μmol + compound 25 μmol): 0% | Calculated activity ([7]; BIT 25 μmol + compound 50 μmol): 0% | Calculated activity ([7]; BIT 25 μmol + compound 75 μmol): 0% | Calculated activity ([7]; BIT 50 μmol + compound 25 μmol): 0% | Calculated activity ([7]; BIT 50 μmol + compound 50 μmol): 0% | Calculated activity ([7]; BIT 50 μmol + compound 75 μmol): 0% | Measured activity [7, 9]: 0% | Measured activity [7, 10]: 100% | Measured activity [7, 11]: 100% | Measured activity [7, 12]: 100% | Measured activity [7, 13]: 100% | Measured activity [7, 14]: 100% | Measured activity ([7]; compound alone 25 μmol): 0% | Measured activity ([7]; compound alone 50 μmol): 0% | Measured activity ([7]; compound alone 75 μmol): 0% | Calculated activity ([8]; BAC 40 μmol + compound 10 μmol): 0% | Calculated activity ([8]; BAC 40 μmol + compound 20 μmol): 0% | Calculated activity ([8]; BAC 40 μmol + compound 40 μmol): 30% | Calculated activity ([8]; BAC 40 μmol + compound 80 μmol): 90% | Calculated activity [8, 15]: 100% | Calculated activity ([8]; BAC 80 μmol + compound 10 μmol): 100% | Calculated activity ([8]; BAC 80 μmol + compound 20 μmol): 100% | Calculated activity ([8]; BAC 80 μmol + compound 40 μmol): 100% | Calculated activity ([8]; BAC 80 μmol + compound 80 μmol): 100% | Calculated activity [8, 16]: 100% | Measured activity [8, 17]: 50% | Measured activity [8, 18]: 50% | Measured activity [8, 19]: 100% | Measured activity [8, 20]: 100% | Measured activity [8, 21]: 100% | Measured activity [8, 22]: 100% | Measured activity [8, 23]: 100% | Measured activity [8, 24]: 100% | Measured activity [8, 25]: 100% | Measured activity [8, 26]: 100% | Measured activity ([8]; compound alone 10 μmol): 0% | Measured activity ([8]; compound alone 20 μmol): 0% | Measured activity ([8]; compound alone 40 μmol): 30% | Measured activity ([8]; compound alone 80 μmol): 90% | Measured activity ([8]; compound alone 160 μmol): 100%

O=c1[nH]sc2ccccc12 [BIT, 1,2-benzisothiazol-3(2H)-one, reference compound]
Measured activity ([6]; BIT alone 25 μmol): 0% | Measured activity ([6]; BIT alone 50 μmol): 100% | Measured activity ([7]; BIT alone 25 μmol): 0% | Measured activity ([7]; BIT alone 50 μmol): 0%

Cl.Cl.NCCCNCCC(c1ccccc1)c1ccc(-c2ccccc2)cc1 (stereo not shown) [Co. No. 40]
E. coli (growth inhibition score) [1]: 3 | P. aeruginosa (growth inhibition score) [2]: 3 | Test yeast (19) Debaryomyces hansenii (score) [3]: 3 | Test yeast (20) Rhodotorula rubra (score) [4]: 3 | Test yeast (21) Sporobolomyces roseus (score) [5]: 3 | Calculated activity ([8]; BAC 40 μmol + compound 10 μmol): 50% | Calculated activity ([8]; BAC 40 μmol + compound 20 μmol): 50% | Calculated activity ([8]; BAC 40 μmol + compound 40 μmol): 95% | Calculated activity ([8]; BAC 40 μmol + compound 80 μmol): 100% | Calculated activity [8, 15]: 100% | Calculated activity ([8]; BAC 80 μmol + compound 10 μmol): 100% | Calculated activity ([8]; BAC 80 μmol + compound 20 μmol): 100% | Calculated activity ([8]; BAC 80 μmol + compound 40 μmol): 100% | Calculated activity ([8]; BAC 80 μmol + compound 80 μmol): 100% | Calculated activity [8, 16]: 100% | Measured activity [8, 17]: 100% | Measured activity [8, 18]: 100% | Measured activity [8, 19]: 100% | Measured activity [8, 20]: 100% | Measured activity [8, 21]: 100% | Measured activity [8, 22]: 100% | Measured activity [8, 23]: 100% | Measured activity [8, 24]: 100% | Measured activity [8, 25]: 100% | Measured activity [8, 26]: 100% | Measured activity ([8]; compound alone 10 μmol): 0% | Measured activity ([8]; compound alone 20 μmol): 0% | Measured activity ([8]; compound alone 40 μmol): 90% | Measured activity ([8]; compound alone 80 μmol): 100% | Measured activity ([8]; compound alone 160 μmol): 100%

Cl.Cl.NCCCN1CCC(C(c2ccccc2)c2ccc(-c3ccccc3)cc2)CC1.O (stereo not shown) [Co. No. 42]
E. coli (growth inhibition score) [1]: 3 | P. aeruginosa (growth inhibition score) [2]: 3 | Test yeast (19) Debaryomyces hansenii (score) [3]: 3 | Test yeast (20) Rhodotorula rubra (score) [4]: 3 | Test yeast (21) Sporobolomyces roseus (score) [5]: 3 | Calculated activity ([8]; BAC 40 μmol + compound 10 μmol): 0% | Calculated activity ([8]; BAC 40 μmol + compound 20 μmol): 0% | Calculated activity ([8]; BAC 40 μmol + compound 40 μmol): 30% | Calculated activity ([8]; BAC 40 μmol + compound 80 μmol): 90% | Calculated activity [8, 15]: 100% | Calculated activity ([8]; BAC 80 μmol + compound 10 μmol): 100% | Calculated activity ([8]; BAC 80 μmol + compound 20 μmol): 100% | Calculated activity ([8]; BAC 80 μmol + compound 40 μmol): 100% | Calculated activity ([8]; BAC 80 μmol + compound 80 μmol): 100% | Calculated activity [8, 16]: 100% | Measured activity [8, 17]: 50% | Measured activity [8, 18]: 50% | Measured activity [8, 19]: 100% | Measured activity [8, 20]: 100% | Measured activity [8, 21]: 100% | Measured activity [8, 22]: 100% | Measured activity [8, 23]: 100% | Measured activity [8, 24]: 100% | Measured activity [8, 25]: 100% | Measured activity [8, 26]: 100% | Measured activity ([8]; compound alone 10 μmol): 0% | Measured activity ([8]; compound alone 20 μmol): 0% | Measured activity ([8]; compound alone 40 μmol): 30% | Measured activity ([8]; compound alone 80 μmol): 90% | Measured activity ([8]; compound alone 160 μmol): 100%
